What all share (format): functional
Settings in all cases: time 24-72 hrs

In one assay the test system is PC-3. The experiment in a line: Growth inhibition of human PC-3 cells measured after 24 to 72 hrs by SRB method.
In another assay the test system is DU-145. Description: Growth inhibition of human DU-145 cells measured after 24 to 72 hrs by SRB method.
Another assay has as its system SF-295. The experiment in a line: Growth inhibition of human SF-295 cells measured after 24 to 72 hrs by SRB method.
Another assay relates to SF-268. Description: Growth inhibition of human SF-268 cells measured after 24 to 72 hrs by SRB method.
For the next assay, the system named is SNB-19. The experiment in a line: Growth inhibition of human SNB-19 cells measured after 24 to 72 hrs by SRB method.
A further assay deals with U-251. The experiment in a line: Growth inhibition of human U-251 cells measured after 24 to 72 hrs by SRB method.
A further assay deals with MDA-MB-435. Description: Growth inhibition of human MDA-MB-435 cells measured after 24 to 72 hrs by SRB method.
In another assay the test system is SK-MEL-28. Description: Growth inhibition of human SK-MEL-28 cells measured after 24 to 72 hrs by SRB method.

For the compound `CNC(=O)c1ccc(N2C(=S)N(c3ccc(C#N)c(C(F)(F)F)c3)C(=O)C2(C)C)cc1F` [ENZALUTAMIDE], the GI50 is 22 µM with PC-3 and greater than 31 µM in the assay with DU-145.

With `Cn1nnc2c(C(N)=O)ncn2c1=O` [TEMOZOLOMIDE], the GI50 in the assay on SF-295, with SF-268, with SNB-19 and in the assay on U-251 was greater than 100 µM each time.

With `CN(C)/N=N/c1[nH]cnc1C(N)=O` [DACARBAZINE], the GI50 is 84.3 µM in the assay on MDA-MB-435 and greater than 100 µM in the assay on SK-MEL-28.

These data come from ChEMBL document CHEMBL5390198, “Scaffold hopping of N-benzyl-3,4,5-trimethoxyaniline: 5,6,7-Trimethoxyflavan derivatives as novel potential anticancer agents modulating hippo signaling pathway” (2023).
